According to article PMC5447756, “Identification of Epigallocatechin-3- Gallate as an Inhibitor of Phosphoglycerate Mutase 1” (Frontiers in Pharmacology, 2017):

Experiments:
[1] = test system: T1, PGAM1 R10K mutant; experiment: Inhibition of PGAM1 R10K mutant; format: biochemical, human; settings: compared to the wild-type PGAM1
T1 construct: His; made in house; host or cells: E. coli BL21
Description: (§1) BL21 competent cells were transformed by His-tagged pETDuet-1-PGAM1 (wildtype or mutants) or His-tagged pETDuet-1-PHGDH constructs. Cells were collected, resuspended in buffer A (20 mM Tris, 200 mM NaCl, 20 mM imidazole, pH 8.0) and sonicated on ice until complete lysis. His-tagged PGAM1, PGAM1 mutants or PHGDH recombinant proteins in supernatant were purified using Ni-NTA beads (QIAGEN), washed with buffer A, and eluted with buffer B (20 mM Tris, 200 mM NaCl, 250 mM imidazole, pH 8.0). All obtained proteins were stored at -80°C.
(§2) Recombinant PGAM1 enzymatic activity was measured by a multiple enzymes coupled assay. In brief, assay was conducted in 10 μL buffer (50 mM HEPES, PH 7.5, 10 mM MgCl2) containing 5 μL 1 mg/ml recombinant PGAM1 enzyme, 2.5 μL test compound, 2.5 μL 1 mM ADP, 1 mM 3-PG, 0.5 units/ml enolase (Sigma–Aldrich) and 0.5 units/mL recombinant pyruvate kinase M1 (Sigma–Aldrich). The production of ATP was measured by Kinase-Glo® Max Luminescent Kinase Assay (Promega).
(§3) H186R was a well-validated catalytically dead mutant of PGAM1 ([Zhang et al., 2016]; [Qu et al., 2017]), which was used as a control (Figure 2B).

[2] = test system: T2, PGAM1 R116K mutant; experiment: Inhibition of PGAM1 R116K mutant; format: biochemical, human; settings: compared to the wild-type PGAM1
T2 construct: His; made in house; host or cells: E. coli BL21
Description: as §1, §2, §3

[3] = test system: T3, PGAM1 R191K mutant; experiment: Inhibition of PGAM1 R191K mutant; format: biochemical, human; settings: compared to the wild-type PGAM1
T3 construct: His; made in house; host or cells: E. coli BL21
Description: as §1, §2, §3

[4] = test system: NCI-H1299 cells; experiment: Intracellular 2-PG measurement; format: cell-based, human; settings: NCI-H1299, 24 h, free compound
Description: A 2-Phosphoglycerate Colorimetric/Fluorometric Assay kit (BioVision) was used to measure cellular 2-PG level. Cells were collected after exposure to compounds for 24 h, washed with PBS, and lysed with ice-cold 2-PG assay buffer. […] The samples were measured by using EnVision® at Ex 535 Em 587 nm.

[5] = test system: human xenograft tumors; parameters: method as in Hitosugi et al., 2012; settings: mice models carrying human xenograft tumors; ref Hitosugi et al., 2012; cited from earlier work
[6] = biological target: T4, PGAM1 (Homo sapiens, UniProt P18669); experiment: PGAM1 coupled enzymatic assay (PKM1/enolase, Kinase-Glo); format: biochemical; settings: recombinant PGAM1, coupled enzyme assay; read-out: IC50, inhibition of PGAM1
T4 construct: His; made in house; host or cells: E. coli BL21
T4 sequence (P18669 whole entry): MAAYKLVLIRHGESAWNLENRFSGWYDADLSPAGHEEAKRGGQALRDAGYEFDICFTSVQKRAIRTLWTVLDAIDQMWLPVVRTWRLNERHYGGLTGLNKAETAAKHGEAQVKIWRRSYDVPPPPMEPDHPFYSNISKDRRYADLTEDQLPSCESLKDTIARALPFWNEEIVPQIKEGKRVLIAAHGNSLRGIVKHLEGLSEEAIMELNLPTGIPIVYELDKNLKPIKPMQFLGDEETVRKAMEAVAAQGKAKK
Description: To identify new PGAM1 inhibitors, we utilized a coupled PGAM1 and pyruvate kinase isozymes M1 (PKM1)/enolase biochemical assay followed by a counter screen to exclude compounds with activity toward PKM1 or enolase. […] Using these biochemical assays, we screened a chemical library composed of 800 purified compounds derived from natural products.

[7] = test system: T5, phosphoglycerate dehydrogenase (PHGDH); experiment: PHGDH enzymatic assay; format: biochemical; settings: at a concentration up to 100 μM
T5 construct: His; made in house; host or cells: E. coli BL21
Description: Assays were conducted in 10 μL buffer (200 mM Tris-HCl pH8.1, 400 mM KCl, 2 mM GSH, and 10 mM EDTA) containing recombinant PHGDH, 0.6 mM NAD, 1 mM 3-PG. The NADH product can be measured by diaphorase/rezasurin system.

[8] = test system: T6, mutant isocitrate dehydrogenase 1 (IDH1 R132H); experiment: IDH enzymatic assay; format: biochemical; settings: at a concentration up to 100 μM
T6 construct: purchased Cayman Chemical
Description: Assays were conducted in 10 μL buffer [150 mM NaCl, 20 mM Tris pH7.5, 10 mM MgCl2, 0.05% (w/v) bovine serum albumin] containing 2.5 μL of test compound, 5 μL enzyme solution (10 ng/μL mutant IDH, Cayman Chemical) and 2.5 μL substrate solution (1 mM α-KG, 4 μM NADPH) added into a 384-well plate followed by incubation at room temperature for 60 min. After incubation, NADPH remaining amount was measured by adding 5 μL buffer containing 5 μM resazurin and 0.01 unit diaphorase and incubated at room temperature for 10 min. The plate was read using EnVision (Perkin Elmer) at Ex 540 Em 590 nm.

[9] = biological target: T4, PGAM1; experiment: Surface plasmon resonance binding to PGAM1; settings: SPR, 25°C, 1:1 Langmuir binding model; read-out: dissociation constant (Kd-value)
Description: Surface plasmon resonance (SPR) assay was carried out with a ProteOn XPR36 instrument (Bio-Rad). PGAM1 was coupled to the surface of a GLH sensor chip according to the manufacturer’s instructions. […] Resonance units (RU) changes represent the binding condition. The dissociation constant (Kd) was calculated using the ProteOn Manager 3.1 software program by fitting to a 1:1 Langmuir binding model.

[10] = biological target: T4, PGAM1; experiment: Substrate 3-PG competition, Lineweaver-Burk plot analysis; format: biochemical
[11] = test system: Caco-2 monolayer; experiment: Caco-2 monolayer permeability; format: in vitro ADME; settings: result in words
Description: The solubility of compounds was measured by Nephelometry using the NEPHELOstar plus apparatus (BMG Lab Technologies). Caco-2 monolayer was cultivated on permeable support. In details, after 21-day culture, the integrity of the cell monolayer of every well was verified by measuring the transepithelial electrical resistance (TEER). The diluted solution was added to corresponding well and the plate was incubated at 37°C for 1.5 h. 100 μL samples were collected from both apical and basolateral sides at the initial and end time points and the sample concentrations were measured for the evaluation of mass balance.

[12] = test system: NCI-H1299 cells; experiment: Cell proliferation assay, NCI-H1299; format: cell-based, human
Description: Cells were seeded into a 6-well plate. […] The cells were harvested after incubation for 72 h and the proliferation inhibition rate was calculated by cell number counting (Beckman).

[13] = test system: hexokinase 2 (HK2); parameters: method as in Gao et al., 2015; settings: human tongue carcinoma; ref Gao et al., 2015; cited from earlier work

Compound | inhibitory activity toward R10K mutant [1] | inhibitory activity toward R116K mutant [2] | inhibitory activity toward R191K mutant [3] | concentration giving apparent inhibition of intracellular 2-PG level [4] [µM] | anticancer properties in xenograft mice [5] | IC50 [6] [nM] | inhibition of PHGDH [7] | inhibition of mutant IDH1 [8] | Kd [9] [nM] | pattern of inhibition with substrate 3-PG [10] | membrane permeability [11] | cell growth ([12]; NCI-H1299, 72 h, cell counting) | effect of stable knockdown of PGAM1 on growth inhibition ([12]; PGAM1 stable knockdown NCI-H1299 (shPGAM1) vs scramble, 72 h) | expression of hexokinase 2 (HK2) [13]
O=C1c2ccccc2C(=O)c2c1cc(S(=O)(=O)Nc1ccc(C(F)(F)F)cc1)c(O)c2O [PGMI-004A, reference compound] | only slightly affect the activity | only slightly affect the activity | only slightly affect the activity | 20 | exhibited evident anticancer properties | – | – | – | – | – | – | – | – | –
(-)-Epigallocatechin-3-gallate [EGCG] | lost its inhibitory activity | lost its inhibitory activity | lost its inhibitory activity | 80 | – | 490 ± 170 | did not inhibit | did not inhibit | 780 | non-competitive | extremely low membrane permeability | dose-dependently inhibited cell growth | partially rescued | inhibits the expression
